Consider 5 compounds from paper PMC5321639, “Design and pharmacodynamics of recombinant NZ2114 histidine mutants with improved activity against methicillin-resistant Staphylococcus aureus” (AMB Express, 2017).

The conditions of experiment [1]: conventional antibiotics; ref Pankuch and Appelbaum [2009b]; Pankuch et al. [2003]; Watanabe et al. [1997]; cited from earlier work. The text has this:
The PAE is a very important pharmacodynamics parameter in choosing of antibiotic dosage regimens in clinical use (Pankuch and Appelbaum [2009a]).

The subject of experiment [2] is S. aureus ATCC43300 (MRSA). Nature of the experiment: Time-kill curve assay. It counts as cell-based, Staphylococcus aureus. To be noted: for time for bacterial counts to decrease to 2 log10 CFU/ml (a 99.9% reduction): start 1 × 10^5 CFU/ml, 37 °C, triplicate. The method, then:
Bacterial culture (S. aureus ATCC43300) was diluted to 1 × 10^5 CFU/ml and H1, H2, and H3 were added. […] The mixture was cultivated at 250 rpm, 37 °C. The 100-µl samples were taken from each flask at 0, 2, 4, 6, 8, 12 and 24 h of incubation, and serial dilutions of samples were plated to count visible colonies. Vancomycin was tested in the same way as a positive control and the culture without antimicrobial agent as a negative control (Xiong et al. [2011]). All experiments were performed in triplicate.

The subject of experiment [3] is S. aureus ATCC43300. Put plainly: Postantibiotic effect (PAE). It counts as cell-based, Staphylococcus aureus. To be noted: 2 h exposure at 37 °C, 1 × 10^8 CFU/ml, drug removed by 1:10^3 dilution, mean ± SD, n = 3. On the procedure: After 2 h, the drug was removed by diluting 1:10^3 into the MHB and incubated at 37 °C, 250 rpm. The sample was taken to plate counting every 1 h until the bacterial cultures become turbid. The PAE was calculated by the following formula: PAE = T − C, where T is the time needed for the count of CFU in the test culture to increase 1 log10 (10-fold) above the 0 h and C is the time needed for the count of CFU in the untreated control culture to increase 1 log10 above the 0 h (Giguère et al. [2012]).

Experiment [4] relates to S. aureus ATCC43300. Put plainly: microbe, parasite or virus in culture. It counts as cell-based, Staphylococcus aureus. To be noted: for MICc (MIC of the most effective combination): checkerboard; for MIC: read-out: MICa (MIC of drug alone); for FIC: MICc/MICa. On the procedure:
The MIC values of four antibiotics (vancomycin, ampicillin, rifampicin and ciprofloxacin) to S. aureus ATCC43300 were tested as the MIC assay described above. The peptide solutions and antibiotics were diluted twofold with the final concentrations ranging from 1/16 to 8× MIC, and added into 96-well plates in a checkerboard fashion (White et al. [1996]). The results of combination were evaluated by calculating the fractional inhibitory concentration index (FICI) of each combination. FIC of H1, H2, H3=MIC of H1, H2, H3, respectively, in combination with antibiotic/MIC of H1, H2, H3 alone; FIC of antibiotics=MIC of antibiotic in combination with peptide/MIC of antibiotic alone; FICI = FIC of H1, H2, H3+ antibiotic, respectively. The result of interaction between two antimicrobial drugs was determined according to: FICI ≤ 0.5 refers to synergy, 0.5 < FICI ≤ 1 refers to additivity, 1 < FICI ≤ 4 refers to indifference, and FICI > 4 is defined as antagonism (Tsuji and Rybak [2006]).

For experiment [5], the system named is S. aureus ATCC43300. Nature of the experiment: Effect of pH on activity (MIC). It counts as cell-based, Staphylococcus aureus. The settings on record: then MIC assay. The method, then: (§1) The peptide solutions were diluted twofold with the range of final concentrations were 0.015–32 µg/ml (0.003–7.273 µM) for purified H1, H2, H3, H6, and H8. The test strains were grown in MHB medium at 37 °C to an OD600 of 0.4 and diluted to 1 × 10^5 CFU/ml. The 10 µl peptide and 90 µl cell suspension were added into each well. All assays were performed in triplicate. The antimicrobial activity of NZ2114 and vancomycin were tested as positive controls. The plates were incubated at 37 °C for 18–24 h. MIC was defined as the lowest peptide concentration of ones at which there was no visible growth (Tian et al. [2009]).
(§2) The effect of pH, temperature, NaCl concentration and proteinase on the activity of peptides was evaluated. Peptides were diluted twofold, then adjusted to a pH range from 2.0 to 10.0 and incubated at 37 °C for 4 h. The thermal stability of purified peptides was determined after 1-h incubation of peptides at 4, 20, 40, 60, 80 and 100 °C in deionized water, respectively. Aliquots of peptides were incubated in various proteinases solutions [pepsin (pH 2.0), trypsin (pH 8.0), proteinase K (pH 7.0)] at a ratio of 1:10, w/w (proteinase: peptide) at 37 °C for 3 h. For the ion stability, peptides were incubated in 50, 100, 200, 300, 400, 500 mM sodium chloride solutions, respectively. Other methods and conditions were prepared as the MIC assay described above (Li et al. [2015]; Qu et al. [2016]).

For experiment [6], the system named is S. aureus ATCC43300. Nature of the experiment: Effect of temperature on activity (MIC). It counts as cell-based, Staphylococcus aureus. To be noted: then MIC assay. On the procedure:
as §1, §2

Experiment [7] has as its system S. aureus ATCC43300. Put plainly: Effect of NaCl concentration on activity (MIC). It counts as cell-based, Staphylococcus aureus. The method, then: as §1, §2
Experiment [8] has as its system S. aureus ATCC43300. Nature of the experiment: Effect of proteinases on activity (MIC). It counts as cell-based, Staphylococcus aureus. The settings on record: 1:10 w/w proteinase:peptide, 37 °C for 3 h, then MIC assay. The method, then:
as §1, §2

In brackets after ≈: the same amount, converted by molar mass. Like-named read-outs stand apart in the source and are kept apart here. Where a SMILES comes first, the peptide text is derived from it. Bridges are numbered along the chain shown (N, C = ends).

For `NCC[C@H](O)C(=O)N[C@@H]1C[C@H](N)[C@@H](O[C@H]2O[C@H](CN)CC[C@H]2N)[C@H](O)[C@H]1O[C@H]1O[C@H](CO)[C@@H](O)[C@H](N)[C@H]1O` [arbekacin], the PAE in experiment [1] was 3.0 to 3.2 h.
Take `CN(C)c1cc(NC(=O)CNC(C)(C)C)c(O)c2c1C[C@H]1C[C@H]3[C@H](N(C)C)C(O)=C(C(N)=O)C(=O)[C@@]3(O)C(O)=C1C2=O` [tigecycline]: the PAE in experiment [1] is on record as 3.2 h.
In the case of `CC[C@H](C)[C@@H]1NC(=O)[C@H](CO)NC(=O)[C@H](CCCCN)NC(=O)[C@@H]2CSSC[C@@H](C(=O)N[C@@H](Cc3ccc(O)cc3)C(=O)O)NC(=O)[C@H](CCCCN)NC(=O)[C@@H]3CSSC[C@H](NC(=O)[C@H](CCCNC(=N)N)NC(=O)[C@H](CC(C)C)NC(=O)[C@H](CC(=O)O)NC(=O)[C@H](CC(=O)O)NC(=O)[C@H](CCC(=O)O)NC(=O)[C@H](CC(N)=O)NC(=O)[C@H](Cc4c[nH]c5ccccc45)NC(=O)[C@@H]4CCCN4C(=O)CNC(=O)[C@H](CC(N)=O)NC(=O)[C@@H](NC(=O)CNC(=O)[C@H](Cc4ccccc4)NC(=O)CN)CSSC[C@H](NC(=O)[C@H](Cc4ccc(O)cc4)NC(=O)CNC(=O)CNC(=O)[C@H](CCCCN)NC(=O)[C@H](Cc4ccc(O)cc4)NC(=O)CNC(=O)[C@H](CCCCN)NC1=O)C(=O)N[C@@H](C)C(=O)N[C@@H](CCCCN)C(=O)NCC(=O)NCC(=O)N[C@@H](Cc1ccccc1)C(=O)N[C@@H](C(C)C)C(=O)N3)C(=O)N[C@@H](CCCCN)C(=O)N[C@@H](CC(N)=O)C(=O)N[C@@H](Cc1c[nH]cn1)C(=O)N2` [H1] (H-GFGCNGPWNEDDLRCKNHCKSIKGYKGGYCAKGGFVCKCY-OH; disulfide 4-30, 15-37, 19-39; N-terminus and C-terminus assumed), the “incubation time after which regrowth occurred” value in experiment [2] (1× MIC) is 8 h; in experiment [2] (2× MIC) it was 12 h. Also, the “time for bacterial counts to decrease to 2 log10 CFU/ml (a 99.9% reduction)” value in experiment [2] (1× MIC) is 6 h; in experiment [2] (2× MIC), 1.5 h; in experiment [2] (4× MIC), 1 h. Further, the “bacterial counts at 24 h after regrowth” value in experiment [2] (2× MIC, 24 h) was 3.40 log10 CFU/ml. Further, the figures for the PAE in experiment [3] (1× MIC) and in experiment [3] (2× MIC) were 0.90 ± 0.04 h and 2.94 ± 0.07 h, respectively. The “MICc (MIC of the most effective combination)” value in experiment [4] (in combination with ampicillin) worked out at 0.014 µM; in experiment [4] (in combination with ciprofloxacin), 0.028 µM; in experiment [4] (in combination with rifampicin), 0.056 µM; in experiment [4] (in combination with vancomycin), 0.056 µM. Further, the MIC in experiment [4] (drug alone) stood at 0.056 µM. Also, in experiment [5] (pH 2, 37 °C for 4 h), the “MIC after incubation at pH2” value came to 0.057 μM. Also, the “MIC after incubation at pH4” value in experiment [5] (pH 4, 37 °C for 4 h) amounted to 0.057 μM. Also, in experiment [5] (pH 6, 37 °C for 4 h), the “MIC after incubation at pH6” value is 0.057 μM. Further, the “MIC after incubation at pH8” value in experiment [5] (pH 8, 37 °C for 4 h) was 0.057 μM. In experiment [6] (1 h at 4 °C in deionized water), the “MIC after incubation at 4 °C” value was 0.057 µM (≈ 0.251 µg/mL). Further, the “MIC after incubation at 20 °C” value in experiment [6] (1 h at 20 °C in deionized water) came to 0.057 µM (≈ 0.251 µg/mL). The “MIC after incubation at 40 °C” value in experiment [6] (1 h at 40 °C in deionized water) was determined as 0.057 µM (≈ 0.251 µg/mL). The “MIC after incubation at 60 °C” value in experiment [6] (1 h at 60 °C in deionized water) amounted to 0.057 µM (≈ 0.251 µg/mL). The “MIC after incubation at 80 °C” value in experiment [6] (1 h at 80 °C in deionized water) worked out at 0.057 µM (≈ 0.251 µg/mL). The “MIC in 50 mM NaCl” value in experiment [7] (incubated in 50 mM sodium chloride solution) turned out to be 0.057 µM (≈ 0.251 µg/mL). In experiment [7] (incubated in 100 mM sodium chloride solution), the “MIC in 100 mM NaCl” value turned out to be 0.057 µM (≈ 0.251 µg/mL). In experiment [7] (incubated in 200 mM sodium chloride solution), the “MIC in 200 mM NaCl” value was found to be 0.057 µM (≈ 0.251 µg/mL). In addition, the “MIC in 300 mM NaCl” value in experiment [7] (incubated in 300 mM sodium chloride solution) was found to be 0.057 µM (≈ 0.251 µg/mL). Besides, the “MIC in 400 mM NaCl” value in experiment [7] (incubated in 400 mM sodium chloride solution) is 0.057 µM (≈ 0.251 µg/mL). The “MIC in 500 mM NaCl” value in experiment [7] (incubated in 500 mM sodium chloride solution) is 0.057 µM (≈ 0.251 µg/mL). Moreover, in experiment [8] (proteinase K (pH 7.0)), the “MIC after Proteinase K” value came out at 0.057 µM (≈ 0.251 µg/mL). For the same compound, the “MIC after Trypsin” value in experiment [8] (trypsin (pH 8.0)) is 0.057 µM (≈ 0.251 µg/mL).
As to daptomycin, in experiment [1], the PAE is 2.0 h.
As for `CO[C@H]1/C=C/O[C@@]2(C)Oc3c(C)c(O)c4c(O)c(c(/C=N/N5CCN(C)CC5)c(O)c4c3C2=O)NC(=O)/C(C)=C\C=C\[C@H](C)[C@H](O)[C@@H](C)[C@@H](O)[C@@H](C)[C@H](OC(C)=O)[C@@H]1C` [rifampicin], the MIC in experiment [4] (Staphylococcus aureus, ATCC43300) amounted to 0.019 µM. For the same compound, the entries for the “MICc (MIC of the most effective combination)” value in experiment [4] (in combination with H1), in experiment [4] (in combination with H2) and in experiment [4] (in combination with H3) were 0.019 µM, 0.019 µM and 0.038 µM, respectively. For the same compound, the values for the FIC in experiment [4] (in combination with H1), in experiment [4] (in combination with H2) and in experiment [4] (in combination with H3) were 1, 1 and 2, respectively.
